Earlier results in PMC6151961 (Journal of Enzyme Inhibition and Medicinal Chemistry, 2018).
Like-named read-outs stand apart in the source and are kept apart here.

Biological target: CA IX (Homo sapiens, UniProt Q16790)
Conditions: cited from earlier work; for Ki: read-out: Ki
[1] = library compounds (IDs A…, B…), values equal log10 of Ki in nM, ref ChEMBL and BindingDB
[2] = observed Ki of library compounds (IDs A…, B…), ref ChEMBL and BindingDB
[3] = library compounds (IDs A…, B…), observed Ki towards CA IX, ref ChEMBL and BindingDB
[4] = library compounds (IDs A..., B...), values equal log10 of Ki in nM, ref ChEMBL, BindingDB
[5] = observed Ki of library compounds (IDs A..., B...), ref ChEMBL, BindingDB
[6] = library compounds (IDs A…, B…) of Table S4, ref ChEMBL and BindingDB

In the case of `C[C@H](Nc1nc(NCc2ccc(S(N)(=O)=O)cc2)nc(N[C@@H](C)C(=O)O)n1)C(=O)O` [B0173], the “log10 of Ki in nM” value is listed as 0.929 and the Ki is listed as 0.0085 µM.
For `CC(=O)OC[C@@H]1O[C@@H](SCc2cn(-c3ccc(S(N)(=O)=O)cc3)nn2)[C@H](OC(C)=O)[C@@H](OC(C)=O)[C@@H]1OC(C)=O` [B0180], the “log10 of Ki in nM” value is listed as 0.934 and the Ki is listed as 0.0086 µM.
For `CC(=O)OC[C@@H]1O[C@@H](NS(N)(=O)=O)CC[C@H]1OC(C)=O` [B0190], the “log10 of Ki in nM” value [1] is given as 0.954 and the Ki [2] is given as 0.009 µM.
For `NS(=O)(=O)c1ccc(CCNc2nc(N[C@@H](CO)C(=O)O)nc(N[C@H](CO)C(=O)O)n2)cc1` [B0192], the “log10 of Ki in nM” value is given as 0.954 and the Ki is given as 0.009 µM.
For `Cn1nc(S(N)(=O)=O)s/c1=N/C(=O)c1c(F)c(F)cc(F)c1F` [B0221], the “log10 of Ki in nM” value is given as 1.021 and the Ki is given as 0.0105 µM.
For `COc1cc(/C=C\C(=O)OCCCCO[N+](=O)[O-])ccc1OC(=O)c1ccc(S(N)(=O)=O)cc1` [B0225], the “log10 of Ki in nM” value is listed as 1.041 and the Ki is listed as 0.011 µM.
In the case of `NS(=O)(=O)c1cc(-c2nnc(-c3ccccc3)s2)c(Cl)cc1Cl` [B0246], the Ki [3] is listed as 0.014 µM and the “log10 of Ki in nM” value [1] is listed as 1.146.
For `NS(=O)(=O)c1ccc(NC2=NC(=O)/C(=C\c3coc4ccccc4c3=O)S2)cc1` [B0247], the Ki [3] is given as 0.014 µM and the “log10 of Ki in nM” value [1] is given as 1.146.
For `CCCN(CCC)S(=O)(=O)c1ccc(C(=O)N[C@H](C)C(N)=O)cc1` [B0254, reference compound], the Ki (CA IX, library ligands, ref ChEMBL[43] and BindingDB[44]) is listed as 0.015 µM and the “log10 of Ki in nM” value (CA IX, observed value, equals log of Ki in nM, ref ChEMBL[43] and BindingDB[44]) is listed as 1.176.
For `Cc1cc(C)o/c(=N\O)c1` [B0259], the “log10 of Ki in nM” value [4] is listed as 1.204 and the Ki [5] is listed as 0.016 µM.
In the case of `Cc1ccc2nc(S)n(-c3ccc(S(N)(=O)=O)cc3)c(=O)c2c1` [B0260], the Ki [6] is listed as 0.016 µM and the “log10 of Ki in nM” value [1] is listed as 1.204.
In the case of `Cc1cc(C)c2nc(S)n(-c3ccc(S(N)(=O)=O)cc3)c(=O)c2c1` [B0272], the “log10 of Ki in nM” value [4] is listed as 1.255 and the Ki [5] is listed as 0.018 µM.
For `CCO[C@H]1Oc2ccccc2C(=O)[C@@H]1/C=N\c1ccc(S(=O)(=O)Nc2nccs2)cc1` [B0283], the Ki [6] is listed as 0.02 µM and the “log10 of Ki in nM” value [1] is listed as 1.301.
In the case of `COc1ccc(-c2nn(-c3ccc(S(N)(=O)=O)cc3)cc2/C=N/Nc2nc(-c3cc4cc(Br)ccc4oc3=O)cs2)cc1` [B0286], the Ki [3] is given as 0.02 µM and the “log10 of Ki in nM” value [1] is given as 1.301.
For `NS(=O)(=O)c1ccc(-n2cc(/C=N/Nc3nc(-c4cc5cc(Br)ccc5oc4=O)cs3)c(-c3ccc(Cl)cc3)n2)cc1` [B0302], the “log10 of Ki in nM” value [1] is given as 1.362 and the Ki [2] is given as 0.023 µM.
For `CC1=C[C@H](c2ccccc2)C=C(c2ccccc2)N1c1ccc(S(=O)(=O)Nc2nnc(S(N)(=O)=O)s2)cc1` [B0314], the “log10 of Ki in nM” value [1] is given as 1.380 and the Ki [2] is given as 0.024 µM.
In the case of `Cc1ccc(-c2nn(-c3ccc(S(N)(=O)=O)cc3)cc2/C=N/Nc2nc(-c3cc4cc(Cl)ccc4oc3=O)cs2)cc1` [B0318], the “log10 of Ki in nM” value is listed as 1.380 and the Ki is listed as 0.024 µM.
In the case of `CCOc1ccc(S(=O)(=O)NCCO)cc1-c1nnc2c(n1)c(C)nn2-c1ccc(C)cc1` [B0321], the Ki [5] is given as 0.025 µM.
For `NS(=O)(=O)c1ccc(CNC(=S)Nc2ccc(C3c4ccc(O)cc4Oc4cc(O)ccc43)c(C(=O)O)c2)cc1` [B0334], the Ki [3] is given as 0.026 µM and the “log10 of Ki in nM” value [1] is given as 1.415.
In the case of `CCCN(CCC)S(=O)(=O)c1ccc(C(=O)N[C@H](CO)C(=O)O)cc1` [B0340], the “log10 of Ki in nM” value (experimental pKi towards CA IX, library compounds, ref ChEMB database (ID A), BindingDB (ID B)) is listed as 1.431 and the Ki (observed Ki towards CA IX, library compounds, ref ChEMB database (ID A), BindingDB (ID B)) is listed as 0.027 µM.
In the case of `CCCN(CCC)S(=O)(=O)c1ccc(C(=O)N[C@H](CS)C(N)=O)cc1` [B0344], the Ki [6] is given as 0.028 µM and the “log10 of Ki in nM” value [1] is given as 1.447.
For `CN1N[C@@H](S(N)(=O)=O)S[C@H]1NC(=O)c1c(F)c(F)c(F)c(F)c1F` [B0350], the “log10 of Ki in nM” value [4] is given as 1.462 and the Ki [5] is given as 0.029 µM.
For `NS(=O)(=O)c1ccc(N[C@H]2SC[C@@H](c3ccc([N+](=O)[O-])cc3)N2C2CCCCC2)cc1` [B0353], the Ki [6] is listed as 0.029 µM and the “log10 of Ki in nM” value [1] is listed as 1.462.
In the case of `N#Cc1ccc(-c2cs/c(=N\c3ccc(S(N)(=O)=O)cc3)n2C2CCCCC2)cc1` [B0361], the “log10 of Ki in nM” value [1] is listed as 1.477 and the Ki [2] is listed as 0.03 µM.
In the case of `CC1=C[C@@H](C)C(C)=C(C)N1Cc1ccc(S(N)(=O)=O)cc1` [B0397], the “log10 of Ki in nM” value [1] is given as 1.544 and the Ki [2] is given as 0.035 µM.
